Source: patent publication US6348483B1, “Use of derivatives of methylene-bis-oxazolidine and compositions obtained thereby” (Air Liquide Sante (International), priority 1998, dated 2002)
In brackets after ≈: the same amount, converted by molar mass.

Legend:
Format in all cases: cell-based
Alternaria alternata = assay: Serial dilution test according to DGHM (MIC); details: aqueous 2% by weight strength solution in fully deionized water; unit assumed
Source text: (§1) Solutions of in each case 2% strength by weight in fully deionized water were examined against selected bacteria and/or yeasts and/or fungi and/or algae using the serial dilution test according to DGHM [German Society for Hygiene and Microbiology]. MIC values of the aqueous 2% by weight strength solutions: […]

Fusarium oxysporum = assay: Serial dilution test according to DGHM (MIC); details: aqueous 2% by weight strength solution in fully deionized water; unit assumed
Source text: as §1

Penicillium funiculosum = assay: Serial dilution test according to DGHM (MIC); details: aqueous 2% by weight strength solution in fully deionized water; unit assumed
Source text: as §1

Asperg. niger = assay: Serial dilution test according to DGHM (MIC); details: aqueous 2% by weight strength solution in fully deionized water; unit assumed
Source text: as §1

Cand. albicans = assay: Serial dilution test according to DGHM (MIC); details: aqueous 2% by weight strength solution in fully deionized water; unit assumed
Source text: as §1

Chlorella fusca = assay: Serial dilution test according to DGHM (MIC); details: aqueous 2% by weight strength solution in fully deionized water; unit assumed
Source text: as §1

Pseudomonas aeruginosa = assay: Serial dilution test according to DGHM (MIC); details: aqueous 2% by weight strength solution in fully deionized water; unit assumed
Source text: as §1

Rhodotorula mucilaginosa = assay: Serial dilution test according to DGHM (MIC); details: aqueous 2% by weight strength solution in fully deionized water; unit assumed
Source text: as §1

E. coli = assay: Serial dilution test according to DGHM (MIC); details: aqueous 2% by weight strength solution in fully deionized water; unit assumed
Source text: as §1

[1] = system: Mixed suspension of bacteria and fungi; assay: Boko test in water-diluted cutting fluids, mixed suspension
Method: (§2) In separate batches, in each case 100 ml of the water-diluted cutting fluid to be preserved were admixed with various concentrations of the preservatives to be examined. The growth control used was in each case an unpreserved sample. Two days after the incorporation of the preservatives, the test batches were infected for the first time using 1 ml of an inoculating solution. The inoculating solution used was a suspension of the germs listed below (cultivated on nutrient media and then adapted to water-diluted cutting fluids). […] [table] The test batches were subsequently inoculated two times a week and plated onto agar plates two times per week, the first smear being carried out immediately prior to the new inoculation. The microbial growth on the smears was assessed after incubation at 25° C. for three days. […] The preservative effect of the individual product concentrations was assessed in a semiquantitative method by the colonization of the individual smears using the classification from − to +to +++. Growth was differentiated according to bacteria, yeasts and moulds. The test was usually carried out for twelve inoculation cycles or interrupted after repeated +++growth. The cutting fluids Shell Dromus BX or Almasol EP from Castrol or Rondocor Kompakt from Consulta were examined as 4% strength by weight emulsions in tap water from the city of Norderstedt. Inoculation was carried out using a suspension of bacteria or fungi or a mixed suspension of bacteria and fungi.

Fungi suspension = assay: Boko test in water-diluted cutting fluids, fungi suspension
Method: as §2

Aspergillus niger (AN) = assay: Fungicidal finish (SM 022) of pure acrylate house paint; details: without stress due to leaching
[2] = system: Penicillium funiculosum (PF); assay: as above; details: for Fungicidal finish, colonization rating PF: without stress due to leaching
Method: In separate batches, the test concentrations of the active compounds/products were incorporated into the house paint, and the fungicidal and/or algistatic finish was determined using the stated test methods.
Incorporation and testing were carried out according to the methods SM 022 and SM 023 below.
This laboratory method was used to determine the resistance of house coatings to fungal attack. For the method, house coatings on standardized paper were used as test substrate, and Aspergillus niger (ATCC 6275) and Penicillium funiculosum (ATCC 36839) were used as test fungi. The experiments were carried out in Petri dishes on dextrose nutrient medium.
50 g of the material to be finished were, in separate batches, mixed with various concentrations of the fungicide to be examined and homogenized for 3-5 min using a basket stirrer.
Paper carrier materials having the dimensions 90×270 mm (Schleicher & Schüll No. 2589 B/X 24078) were coated with the test material. The paint and/or render samples were coated to a wet-layer thickness of 250 μm by knife coating. […] In the case of renders, the layer thickness depended, as in practice, on the particle size. The coated carrier materials, hereinbelow referred to as test bodies, were subsequently dried in a horizontal position for five days.
[…] The cross section of the container for the watering in the direction of flow was 1000±500 cm^2.
From the pretreated test bodies, sample bodies having a diameter of 5 cm were punched out and sterilized in a Co^60 source using at least 10 kGy.
The Sabouraud dextrose agar, which had solidified in the Petri dish, was inoculated with 0.2 ml of spore suspension (10^7 spores/ml) and plated out using a sterile Drigalski spatula or an offset sterile glass rod.
The pretreated sample bodies were then evenly placed onto the inoculated surface of the nutrient medium using a pair of tweezers, making sure that the entire surface of the sample body was in contact with the surface of the nutrient medium. The sample was subsequently incubated at 30±2° C. for three weeks. For other test germs, the incubation temperature had to be adapted to achieve optimum growth.
After one, two and three weeks, the sample bodies were examined for fungal growth. Evaluation was carried out visually or—if this was required to exclude foreign infections—using a magnifying glass. If the extent of the colonization by foreign organisms observed considerably interfered with the evaluation, the experiment could not be evaluated and was repeated. The evaluation of the samples was based on the following evaluation scale:
00—entire plate free from colonization*
0—zone formation (no colonization around the sample)*
(0)—fungal colonization up to the sample*
1—only the sample edge is colonized*
2—the sample is colonized from the edge inwards (less than 25%)
3—the sample surface is colonized by individual colonies (25-75%)
4—the sample surface is colonized extensively (75% and more, but not the entire surface)
5—the sample surface is colonized completely (100%)
*Note: Samples evaluated as 00, 0, (0) and 1 can be referred to as “being effectively finished against fungal growth”.

Bacteria suspension = assay: Boko test in water-diluted cutting fluids, bacteria suspension
Method: as §2

[3] = Cutting fluid Almasol EP, use concentration 0.05% by weight
[4] = Cutting fluid Almasol EP, use concentration 0.10% by weight
[5] = Cutting fluid Almasol EP, use concentration 0.15% by weight
[6] = Cutting fluid Rondocor Kompakt, use concentration 0.05% by weight
[7] = Cutting fluid Rondocor Kompakt, use concentration 0.10% by weight
[8] = Cutting fluid Rondocor Kompakt, use concentration 0.15% by weight
[9] = Cutting fluid Shell Dromus BX, use concentration 0.05% by weight
[10] = Cutting fluid Shell Dromus BX, use concentration 0.10% by weight
[11] = Cutting fluid Shell Dromus BX, use concentration 0.15% by weight

CC1CN(CN2COC(C)C2)CO1 (stereo not shown) [Mar 71, 3,3′-methylenebis-(5-methyloxazolidine)]
MIC value AL (Alternaria alternata): 6.25 µg/mL (≈ 33.6 µM) | MIC value FO (Fusarium oxysporum): 1.56 µg/mL (≈ 8.38 µM) | MIC value PF (Penicillium funiculosum): 1.56 µg/mL (≈ 8.38 µM) | MIC value AN (Asperg. niger): 6.25 µg/mL (≈ 33.6 µM) | MIC value CA (Cand. albicans): > 6.25 µg/mL | MIC value CF (Chlorella fusca): 0.39 µg/mL (≈ 2.09 µM) | MIC value PS (Pseudomonas aeruginosa): 6.25 µg/mL (≈ 33.6 µM) | MIC value RM (Rhodotorula mucilaginosa): 3.12 µg/mL (≈ 16.8 µM) | MIC value EC (E. coli): 6.25 µg/mL (≈ 33.6 µM) | Number of inoculation cycles passed on inoculation with Mixed suspension [1, 3]: 11 | Number of inoculation cycles passed on inoculation with Mixed suspension [1, 4]: >12 | Number of inoculation cycles passed on inoculation with Mixed suspension [1, 5]: 11 | Number of inoculation cycles passed on inoculation with Mixed suspension [1, 6]: >12 | Number of inoculation cycles passed on inoculation with Mixed suspension [1, 7]: >12 | Number of inoculation cycles passed on inoculation with Mixed suspension [1, 8]: >12 | Number of inoculation cycles passed on inoculation with Mixed suspension [1, 9]: 4 | Number of inoculation cycles passed on inoculation with Mixed suspension [1, 10]: 11 | Number of inoculation cycles passed on inoculation with Mixed suspension [1, 11]: >12 | Number of inoculation cycles passed on inoculation with Fungi suspension (Fungi suspension; [3]): >12 | Number of inoculation cycles passed on inoculation with Fungi suspension (Fungi suspension; [4]): >12 | Number of inoculation cycles passed on inoculation with Fungi suspension (Fungi suspension; [5]): >12 | Number of inoculation cycles passed on inoculation with Fungi suspension (Fungi suspension; [6]): >12 | Number of inoculation cycles passed on inoculation with Fungi suspension (Fungi suspension; [7]): >12 | Number of inoculation cycles passed on inoculation with Fungi suspension (Fungi suspension; [8]): >12 | Number of inoculation cycles passed on inoculation with Fungi suspension (Fungi suspension; [9]): >12 | Number of inoculation cycles passed on inoculation with Fungi suspension (Fungi suspension; [10]): >12 | Number of inoculation cycles passed on inoculation with Fungi suspension (Fungi suspension; [11]): >12 | Fungicidal finish, colonization rating AN (Aspergillus niger (AN); use conc. 0.5% W/W, 1. week): 5 (the sample surface is colonized completely (100%)) | Fungicidal finish, colonization rating AN (Aspergillus niger (AN); use conc. 0.5% W/W, 2. week): 5 (the sample surface is colonized completely (100%)) | Fungicidal finish, colonization rating AN (Aspergillus niger (AN); use conc. 1.0% W/W, 1. week): 5 (the sample surface is colonized completely (100%)) | Fungicidal finish, colonization rating AN (Aspergillus niger (AN); use conc. 1.0% W/W, 2. week): 5 (the sample surface is colonized completely (100%)) | Fungicidal finish, colonization rating AN (Aspergillus niger (AN); use conc. 2.0% W/W, 1. week): 5 (the sample surface is colonized completely (100%)) | Fungicidal finish, colonization rating AN (Aspergillus niger (AN); use conc. 2.0% W/W, 2. week): 5 (the sample surface is colonized completely (100%)) | Fungicidal activity (in words), PF ([2]; house paint test): no fungicidal activity in practice | Fungicidal finish, colonization rating PF ([2]; use conc. 0.5% W/W, 1. week): 5 (the sample surface is colonized completely (100%)) | Fungicidal finish, colonization rating PF ([2]; use conc. 0.5% W/W, 2. week): 5 (the sample surface is colonized completely (100%)) | Fungicidal finish, colonization rating PF ([2]; use conc. 1.0% W/W, 1. week): 5 (the sample surface is colonized completely (100%)) | Fungicidal finish, colonization rating PF ([2]; use conc. 1.0% W/W, 2. week): 5 (the sample surface is colonized completely (100%)) | Fungicidal finish, colonization rating PF ([2]; use conc. 2.0% W/W, 1. week): 3 (the sample surface is colonized by individual colonies (25%-75%)) | Fungicidal finish, colonization rating PF ([2]; use conc. 2.0% W/W, 2. week): 4 (the sample surface is colonized extensively (75% and more, but not the entire surface)) | Number of inoculation cycles passed on inoculation with Bacteria suspension (Bacteria suspension; [3]): >12 | Number of inoculation cycles passed on inoculation with Bacteria suspension (Bacteria suspension; [4]): >12 | Number of inoculation cycles passed on inoculation with Bacteria suspension (Bacteria suspension; [5]): >12 | Number of inoculation cycles passed on inoculation with Bacteria suspension (Bacteria suspension; [6]): >12 | Number of inoculation cycles passed on inoculation with Bacteria suspension (Bacteria suspension; [7]): >12 | Number of inoculation cycles passed on inoculation with Bacteria suspension (Bacteria suspension; [8]): >12 | Number of inoculation cycles passed on inoculation with Bacteria suspension (Bacteria suspension; [9]): >12 | Number of inoculation cycles passed on inoculation with Bacteria suspension (Bacteria suspension; [10]): >12 | Number of inoculation cycles passed on inoculation with Bacteria suspension (Bacteria suspension; [11]): >12
